Patent US9802899B2, “Heterocyclic compounds as pesticides” (BAYER CROPSCIENCE AG, priority 2012, dated 2017)

How the values were obtained:
[1] = Determination of the log P values by HPLC (formic acid method); format: physicochemical; conditions: printed as (neutral)
[2] = as above; format: physicochemical; conditions: reversed-phase column (C 18), acidic range (pH 3.4), 55° C.; for chromatographic logP: reversed-phase HPLC column (C 18)
Protocol: 1) Description of Method for Determination of the Log P Values (Formic Acid Method)
Eluents for determination in the acidic range (pH 3.4):
Eluent A: acetonitrile+1 ml of formic acid/liter. Eluent B: water+0.9 ml of formic acid/liter.
The lambda max values were determined in the maxima of the chromatographic signals using the UV spectra from 200 nm to 400 nm.

Boophilus microplus [3] = test: Boophilus microplus test (DIP); format: in vivo; conditions: application rate 100 ppm, after 7 days by laying of fertile eggs, 100% = no fertile eggs
Protocol: Boophilus microplus Test (DIP)
Test animals: adult engorged Boophilus microplus females of the SP-resistant Parkhurst strain
(§1) Solvent: dimethyl sulphoxide
10 mg of active compound are dissolved in 0.5 ml of dimethyl sulphoxide. For the purpose of preparing a suitable formulation, the active compound solution is diluted with water to the concentration desired in each case.
This active compound preparation is pipetted into tubes. 8-10 ticks are transferred into a further tube with holes. The tube is immersed into the active compound formulation, and all ticks are completely wetted. After the liquid has run out, the ticks are transferred onto filter discs in plastic dishes and stored in a climate-controlled room.
(§2) The activity is assessed after 7 days by laying of fertile eggs. Eggs whose fertility is not visible from the outside are stored in a climate-controlled cabinet until the larvae hatch. An efficacy of 100% means that none of the ticks has laid any fertile eggs.

Ctenocephalides felis = Ctenocephalides felis oral test (CTECFE); format: in vivo; conditions: application rate 100 ppm in citrated cattle blood; adult fleas; after 2 days
Protocol: Ctenocephalides felis—Oral Test (CTECFE)
Solvent: 1 part by weight of dimethyl sulphoxide
To produce a suitable preparation of active compound, 10 mg of active compound are mixed with 0.5 ml of dimethyl sulphoxide. A portion of the concentrate is diluted with citrated cattle blood, and the desired concentration is prepared.
About 20 unfed adult fleas (Ctenocephalides felis) are placed into a chamber which is closed at the top and bottom with gauze. A metal cylinder whose bottom end is closed with a parafilm is placed onto the chamber. The cylinder contains the blood/active compound preparation, which can be imbibed by the fleas through the Parafilm membrane.
After 2 days, the kill in % is determined 100% means that all fleas have been killed; 0% means that none of the fleas have been killed.

Musca domestica = Musca domestica test (MUSCDO); format: in vivo; conditions: adult flies, after 2 days
Protocol: Musca domestica Test (MUSCDO)
as §1
To produce a suitable preparation of active compound, 10 mg of active compound are mixed with 0.5 ml of dimethyl sulphoxide, and the concentrate is diluted with water to the desired concentration.
Vessels containing a sponge treated with the active compound formulation of the desired concentration are populated with adult Musca domestica.
After 2 days, the kill in % is determined. 100% means that all of the flies have been killed; 0% means that none of the flies have been killed.

Cooperia curticei = Cooperia curticei test (COOPCU); format: in vivo
Protocol: Cooperia curticei Test (COOPCU)
as §1
(§3) To produce a suitable preparation of active compound, 10 mg of active compound are mixed with 0.5 ml of dimethyl sulphoxide, and the concentrate is diluted with Ringer solution to the desired concentration.
Vessels containing the active compound preparation of the desired concentration are populated with about 40 nematode larvae (Cooperia curticei).
(§4) After 5 days, the kill in % is determined 100% means that all of the larvae have been killed; 0% means that none of the larvae have been killed.

Meloidogyne incognita = Meloidogyne incognita test (MELGIN); format: in vivo; conditions: Meloidogyne incognita, 336 h; application rate 20 ppm; lettuce in sand; after 14 days; read-out: nematicidal effect (formation of galls)
Protocol: Meloidogyne incognita Test (MELGIN)
Solvent: 125.0 parts by weight of acetone
To prepare a suitable active compound preparation, 1 part by weight of active compound is mixed with the stated amount of solvent and the concentrate is diluted with water to the desired concentration.
Vessels are filled with sand, active compound solution, an egg/larvae suspension of the root-knot nematode (Meloidogyne incognita) and lettuce seeds. The lettuce seeds germinate and the plants develop. On the roots, galls are formed.
After 14 days, the nematicidal effect in % is determined by the formation of galls. 100% means that no galls have been found; 0% means that the number of galls on the treated plants corresponds to the untreated control.

Phaedon cochleariae = Phaedon cochleariae spray test (PHAECO); format: in vivo; conditions: foliar, 168 h, application rate 500 g/ha, larvae on Chinese cabbage leaf discs, after 7 days, read-out: efficacy
Protocol: Phaedon cochleariae Spray Test (PHAECO)
Solvents: 78.0 parts by weight of acetone • • 1.5 parts by weight of dimethylformamide
Emulsifier: 0.5 part by weight of alkylaryl polyglycol ether
To produce a suitable preparation of active compound, 1 part by weight of active compound is mixed with the stated amounts of solvents and emulsifier, and the concentrate is diluted with emulsifier-containing water to the desired concentration.
After 7 days, the efficacy in % is determined. 100% means that all of the beetle larvae have been killed; 0% means that none of the beetle larvae have been killed.

Haemonchus contortus = Haemonchus contortus test (HAEMCO); format: in vivo; conditions: application rate 4 ppm; larvae; after 5 days
Protocol: Haemonchus contortus Test (HAEMCO)
as §1, §3
Vessels containing the active compound preparation of the desired concentration are populated with about 40 larvae of the red stomach worm (Haemonchus contortus).
as §4

Boophilus microplus [4] = test: Boophilus microplus test (BOOPMI injection); format: in vivo; conditions: application rate 20 μg/animal; injection into the abdomen; after 7 days by laying of fertile eggs
Protocol: Boophilus microplus Test (BOOPMI Injection)
as §1
To produce a suitable preparation of active compound, 10 mg of active compound are mixed with 0.5 ml of solvent, and the concentrate is diluted with solvent to the desired concentration.
The active compound solution is injected into the abdomen (Boophilus microplus), and the animals are transferred into dishes and stored in a climate-controlled room.
as §2, with “the larvae hatch after about 42 days. An efficacy” for “the larvae hatch. An efficacy”, “any fertile eggs; 0% means that all eggs are fertile.” for “any fertile eggs.”

log P [2] | Compound | efficacy (Boophilus microplus [3]) | efficacy (kill) (Ctenocephalides felis) | efficacy (kill) (Haemonchus contortus) | other results
2.45 | O=C(Nc1ccn(-c2c(F)cccc2F)n1)c1nccnc1C(F)(F)F [Compound I-1-99] | 100% | 80% |  | efficacy (kill) (Musca domestica; application rate 20 ppm): 90%
2.22 | O=C(Nc1ccn(-c2ncccc2F)n1)c1ccccc1I [Compound I-1-131] |  | 90% |  | 
3.57 | O=C(Nc1ccn(-c2cc(F)ccc2F)n1)c1sccc1I [Compound I-1-221] |  |  | 90% | efficacy (kill) (Cooperia curticei; application rate 4 ppm, nematode larvae, after 5 days): 90%

Continued, molecule first:

Compound | log P [2] | efficacy (Boophilus microplus [3]) | efficacy (kill) (Ctenocephalides felis) | efficacy (kill) (Haemonchus contortus) | other results
O=C(Nc1ccn(-c2ccccc2Br)n1)c1c(F)cccc1C(F)(F)F [Compound I-1-335] |  |  |  |  | log P (neutral) [1]: 3.02
O=C(Nc1ccn(-c2c(F)cccc2F)n1)c1ncccc1C(F)(F)F [Compound I-1-91, N-[1-(2,6-Difluorophenyl)-1H-pyrazol-3-yl]-3-(trifluoromethyl)pyridine-2-carboxamide] |  | 90% | 80% |  | chromatographic logP [2]: 2.22; efficacy (kill) (Musca domestica; application rate 20 ppm): 85%; pest or weed control at 100 ppm (Cooperia curticei; Cooperia curticei, 120 h, application rate 100 ppm, nematode larvae, after 5 days, read-out: efficacy (kill)): 90%; pest or weed control at 20 ppm (Meloidogyne incognita): 100%; pest or weed control at 500 g/ha (Phaedon cochleariae): 100%
O=C(Nc1cnn(-c2ncccc2F)n1)c1c(F)cccc1C(F)(F)F [Compound I-2-49] | 2.26 |  |  | 90% | 
O=C(Nc1cnn(-c2ncccc2F)n1)c1ccccc1I [Compound I-2-51] | 2.14 |  |  | 80% | 
O=C(Nc1ccn(-c2ncccc2Cl)n1)c1cccnc1C(F)(F)F [Compound I-1-562] | 1.98 |  |  |  | efficacy (kill) (Musca domestica; application rate 100 ppm): 90%
O=C(Nc1ccn(-c2ccccc2Br)n1)c1ncccc1Cl [Compound I-1-55] | 2.76 |  |  |  | efficacy (Boophilus microplus [4]): 80%
O=C(Nc1cnn(-c2ccccc2Cl)n1)c1ccccc1C(F)(F)F [Compound I-2-1, N-[2-(2-Chlorophenyl)-2H-1,2,3-triazol-4-yl]-2-(trifluoromethyl)benzamide] |  | 100% | 90% | 80% | chromatographic logP [2]: 3.02; pest or weed control at 4 ppm (Cooperia curticei; Cooperia curticei, 120 h, read-out: efficacy (kill)): 100%; pest or weed control at 500 g/ha (Phaedon cochleariae): 100%
